From patent US20120165384A1, “INHIBITION OF HISTONE ACETYLTRANSFERASES BY CTK7A AND METHODS THEREOF” (JAWAHARLAL NEHRU CENTRE FOR ADVANCED SCIENTIFIC RESEARCH, priority 2009, published 2012)

Assays:
[1] = test system: H3 acetylation at the cyclin E promoter in KB cells; assay: ChIP assay, acetylated H3 at cyclin E promoter; type: cell-based; conditions: 24 hrs treatment
Protocol: The pull-downs for ChIP assay was performed using anti-acetylated H3 (H3AcK9AcK14) (Santa Cruz) antibody. KB cells were maintained in DMEM supplemented with 10% FBS were treated with CTK7A and cells were grown for 24 hrs. For ChIP assay cells were processed as described elsewhere^47. The pulldown was done using antibody against the above antibody and the immunoprecipitated samples were deproteinized and ethanol-precipitated to recover the DNA. Real-time PCR analysis was performed using primers for the cyclin E promoter region. PCR primers for the cyclin E promoter region were […]

[2] = molecular target: T1, PCAF (Homo sapiens, UniProt Q92831); assay: PCAF autoacetylation assay in vitro; type: biochemical; conditions: concentration dependent
T1 construct: Recombinant baculovirus expressing full-length FLAG-tagged CARM1,CBP and PCAF; FLAG; made in house; host or cells: baculovirus-infected Sf21 cells

[3] = test system: cyclin E and cyclin D1 expression in KB cells; assay: Cyclin expression in KB cells; type: cell-based
Protocol: KB cells were maintained in Dullbecco's modified Eagle medium (DMEM) with 10% fetal bovine serum (FBS) at 37° C. with a 5% CO2 atmosphere in a humidified incubator. For IFNγ and GSNO treatment, KB cells were incubated in the presence of IFNγ 10 ng ml^−1 for an additional 16 h and 24 h respectively. Immunofluorescent staining of cells for confocal microscopy was carried out as described previously^30. CTK7A treatment was done for 24 h followed by acid extraction of histone and immunoblotting as per standard protocol^31. For whole cell extract preparation RIPA buffer (Tris-HCl 50 mM, pH 7.4 NP-40 1%, Na-deoxycholate 0.25%, NaCl 150 mM, EDTA 1 mM, Phenylmethylsulfonyl fluoride (PMSF), 1 mM Na3VO4, 1 mM NaF and protease inhibitor cocktail) was used.

[4] = Toxicity in mice after intraperitoneal administration; type: in vivo
Protocol: The in vitro and cell line based studies prompted us to study the role of CTK7A in xenograft mice. […] In order to test the effect of CTK7A on tumor growth, KB cells (2×10^6 cells) were inoculated in nude mice in the right and left flanks, respectively and treated them intraperitoneally with 100 mg/kg body weight/twice a day (for detail see Materials and Methods). […] KB cell tumors were 50% smaller in mice treated with CTK7A than in control untreated mice. The differences in the tumor size between xenografts (Control vs treated) was statistically significant (p<0.05). The levels of H3 acetylation and that of other proteins (e.g. NPM1, GAPDH, p300) were determined using IHC. […] It was observed that CTK7A decreased the levels of H3K9, K14 acetylation (as probed by H3AcK9AcK14) and ac-p300 (FIG. 6b and FIG. 6c). Further to see the site specific effect of CTK7A mediated HAT inhibition on histone acetylation, IHC was done with site specific antibodies. […] Moreover, the levels of COX2, which is induced in many cell types by mitogens, growth factors, cytokine and tumor promoters and has been implicated in many cancers, including oral cancer was also found to be suppressed in CTK7A treated tumors (FIG. 6b).

[5] = molecular target: T2, SIRT2 (Homo sapiens, UniProt Q8IXJ6); assay: SirT2 deacetylase assay; type: biochemical; conditions: even at 100 μM
T2 construct: made in house
T2 sequence (Q8IXJ6 1-389): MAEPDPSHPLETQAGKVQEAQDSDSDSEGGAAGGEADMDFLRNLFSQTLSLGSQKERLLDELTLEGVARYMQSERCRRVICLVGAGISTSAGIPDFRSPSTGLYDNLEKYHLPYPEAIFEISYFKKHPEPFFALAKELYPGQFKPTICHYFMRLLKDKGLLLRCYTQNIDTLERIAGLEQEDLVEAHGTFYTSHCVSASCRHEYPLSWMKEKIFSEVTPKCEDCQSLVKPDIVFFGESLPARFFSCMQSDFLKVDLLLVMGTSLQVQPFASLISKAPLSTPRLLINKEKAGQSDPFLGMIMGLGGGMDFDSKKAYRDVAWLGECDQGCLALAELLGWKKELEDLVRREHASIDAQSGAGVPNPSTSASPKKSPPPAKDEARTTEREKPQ
Protocol: The deacetylation assay was performed as per standard protocol^31. For SirT2 deacetylase assay, 50 ng of bacterially expressed, recombinant enzyme was added in the presence or absence of cofactor NAD^+. HMTase was performed as reported earlier^31.

[6] = test system: KB cell tumors; assay: Immunohistochemistry of KB cell tumors from treated mice; type: in vivo, nude mice (BALB/c)
Protocol: After deparafinizing, slides were rinsed in ethanol. Antigen retrieval was performed with sodium citrate (10 mM pH 6.0) for 5 min at 98° C. The staining was performed with the Envision kit (Dako, Denmark). Counterstaining was performed with Mayer's haematoxylin, and mounted in DPX and air dried. Each of the sample specimens was pathologically confirmed before carrying out the immunohistochemistry. For statistical analysis, cells (100 cells from a total of 5-6 independent fields) were counted from both normal and tumor tissue sections and scored for percentage of positive cells (brown colour) for the indicated antibodies. For comparison one-way ANOVA was performed using “Sigmaplot Software”. P-value<0.01 was considered as statistically significant, n=31.
Animal experiments were performed with the approval by authorized ethics Committee. Sixteen nude mice (BALB/c) were included in the experiments (10 male and 6 female mice). Mice were kept in isolators in a pathogen free environment. All nude mice were 3-4 weeks old at the start of the experiments. KB cells, 2×10^6 cells were inoculated in each mice in the right and left flanks, respectively. Mice were then divided in two groups (5 males and 3 females) in each group. After the tumors grown to palpable in size, CTK7A treatment were given intraperitoneally (i.p) with 100 mg/kg body weight/twice a day. Tumors were measured once in three days with a caliper and their volumes were calculated by the formula: 0.52×D1×(D2)^2, where ‘D1’ and ‘D2’ are, respectively, the longest and shortest dimension. The last dose of the compound (CTK7A) was administered four hour before sacrificing it. Tumors were removed and put into liquid nitrogen or were fixed in 10% formalin for 1-2 h to make blocks to be used for IHC. For comparing tumor sizes between treated and control one-way ANOVA was performed using “Sigmaplot Software”. P-value<0.05 was considered as statistically significant.

T1 sequence (Q92831 whole entry, species assumed): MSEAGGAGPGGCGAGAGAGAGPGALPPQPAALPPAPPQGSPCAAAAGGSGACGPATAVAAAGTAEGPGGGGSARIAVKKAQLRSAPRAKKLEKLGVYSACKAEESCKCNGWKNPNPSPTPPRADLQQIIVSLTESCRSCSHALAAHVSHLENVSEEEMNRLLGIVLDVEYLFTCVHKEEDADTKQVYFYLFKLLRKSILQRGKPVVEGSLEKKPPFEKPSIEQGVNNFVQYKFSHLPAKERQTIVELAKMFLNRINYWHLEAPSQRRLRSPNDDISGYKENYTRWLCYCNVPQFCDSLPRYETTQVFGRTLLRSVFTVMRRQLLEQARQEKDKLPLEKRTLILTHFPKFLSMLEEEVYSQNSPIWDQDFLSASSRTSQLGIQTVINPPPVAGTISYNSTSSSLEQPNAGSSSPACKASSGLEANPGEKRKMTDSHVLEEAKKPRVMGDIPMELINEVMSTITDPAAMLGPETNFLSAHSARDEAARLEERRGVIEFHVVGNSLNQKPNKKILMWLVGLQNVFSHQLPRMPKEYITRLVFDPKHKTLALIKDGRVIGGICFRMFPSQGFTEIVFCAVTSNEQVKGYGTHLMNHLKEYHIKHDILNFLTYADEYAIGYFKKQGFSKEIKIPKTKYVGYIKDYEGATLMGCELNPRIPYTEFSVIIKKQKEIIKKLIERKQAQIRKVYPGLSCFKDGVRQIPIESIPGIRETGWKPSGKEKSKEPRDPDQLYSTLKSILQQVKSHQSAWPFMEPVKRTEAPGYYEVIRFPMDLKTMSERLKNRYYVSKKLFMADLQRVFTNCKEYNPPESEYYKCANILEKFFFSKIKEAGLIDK

Q: What does the source list for COc1cc([O-])cc(C=CC2=NN(c3ccc(C(=O)[O-])cc3)C(C=Cc3cc([O-])cc(OC)c3)C2)c1.[Na+].[Na+].[Na+] (centres unmarked) [CTK7A, Sodium 4-(3,5-bis(3-methoxy-5-oxidostyryl)-4,5dihydro-1H-pyrazole-1-yl)benzoate]?
A: acetylation of H3 at the cyclin E promoter [1]: inhibited; inhibition of PCAF autoacetylation [2]: inhibit; cyclin D1 expression [3]: affected marginally; cyclin E expression ([3]; dose dependent): down regulated; body weight loss ([4]; doses up to 100 mg/kg body weight/twice a day during 1 month): no observed weight loss; toxicity to mice ([4]; intraperitoneal (i.p) administration): not toxic; effect on SIRT2 activity [5]: unaffected; levels of COX2 in tumors (IHC) ([6]; i.p. 100 mg/kg twice a day): suppressed; levels of GAPDH in tumors (IHC) ([6]; i.p. 100 mg/kg twice a day): down regulated; levels of H3K9, K14 acetylation (H3AcK9AcK14) in tumors (IHC) ([6]; i.p. 100 mg/kg twice a day): decreased; levels of NPM1 in tumors (IHC) ([6]; i.p. 100 mg/kg twice a day): down regulated; levels of ac-p300 in tumors (IHC) ([6]; i.p. 100 mg/kg twice a day): decreased; levels of iNOS in tumors (IHC) ([6]; i.p. 100 mg/kg twice a day): down regulated; p300 expression in tumors (IHC) ([6]; i.p. 100 mg/kg twice a day): marginal affect; proliferation marker Ki-67 in tumors (IHC) ([6]; i.p. 100 mg/kg twice a day): down regulation; nuclear GAPDH in tumors (IHC) ([6]; present in control mice): absent or very faintly present; inhibition of H3K14 acetylation compared with H3K9 acetylation in tumors (IHC) ([6]; site specific antibodies): more potently
